Measured values taken from ChEMBL document CHEMBL5370651, “Integrating Taxonomic and Chemical Diversity of Mangrove-Associated Ascomycetes to Discover or Repurpose Bioactive Natural Products” (J Nat Prod, 2023).
Converted amounts (≈) assume the structure as drawn.

What was measured:
[1] = tested on: Staphylococcus epidermidis; assay: Antibacterial activity against Staphylococcus epidermidis 42R assessed as reduction in bacterial growth incubated for 16 hrs by broth microdilution method; type: functional
Staphylococcus aureus = assay: Antibacterial activity against Staphylococcus aureus assessed as reduction in bacterial growth incubated for 16 hrs by broth microdilution method; type: functional
Acinetobacter baumannii = assay: Antibacterial activity against pandrug-resistant Acinetobacter baumannii A564 assessed as bacterial growth inhibition at 50 ug/ml incubated for 16 hrs by broth microdilution method relative to control; type: functional; conditions: read-out: GI
[2] = target: T1, Tyrosine-protein phosphatase non-receptor type 1 (Homo sapiens, UniProt P18031); assay: (§1) Inhibition of human PTP1B (1 to 400 residues) using pNPP as substrate preincubated for 10 mins followed by substrate addition and measured after 20 mins
T1 sequence (P18031 whole entry): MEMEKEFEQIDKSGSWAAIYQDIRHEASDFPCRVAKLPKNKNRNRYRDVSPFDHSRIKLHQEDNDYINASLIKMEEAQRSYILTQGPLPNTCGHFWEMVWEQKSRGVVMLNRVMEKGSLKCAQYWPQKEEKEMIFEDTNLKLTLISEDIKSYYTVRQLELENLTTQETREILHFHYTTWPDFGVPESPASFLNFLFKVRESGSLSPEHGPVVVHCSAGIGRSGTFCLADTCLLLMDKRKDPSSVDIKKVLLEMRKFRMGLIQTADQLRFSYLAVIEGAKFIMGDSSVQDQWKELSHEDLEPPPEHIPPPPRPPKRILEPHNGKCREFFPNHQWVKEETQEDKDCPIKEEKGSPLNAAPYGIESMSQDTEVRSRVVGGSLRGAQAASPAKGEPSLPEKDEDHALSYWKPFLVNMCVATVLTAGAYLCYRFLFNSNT

[3] = target: T2, Tyrosine-protein phosphatase non-receptor type 1 (Homo sapiens) (UniProt P18031); assay: as §1
T2 sequence (whole entry): T1 sequence (P18031 whole entry)

Row | IC50 [2] [µM] | inhibition [3] | SMILES | MIC [1] [µg/mL] | MIC (Staphylococcus aureus) [µg/mL] | inhibition of growth at 50 µg/mL (Acinetobacter baumannii) [%]
1 |  |  | CCCCCCCC(=O)c1c(O)cc(O)cc1CC(=O)OCC [CYTOSPORONE B] | 21 (≈ 65.1 µM) | 18 (≈ 55.8 µM) | 51
2 | 27 | Dose-Dependent Effect | CC[C@H](C)C[C@H](C)[C@@H](O)[C@@H](C)/C=C(\C)[C@@H](O)[C@@H](C)/C=C(\C)[C@@H](O)[C@@H](C)/C=C(\C)C=O |  |  | 
